Results from US8829014B2, “Thiazole and thiophene analogues, and their use in treating autoimmune diseases and cancers” (Board of Supervisors of Louisiana State University and …, priority 2006, dated 2014).

System: carageenan-induced edema
Assay: Carrageenan-induced rat paw edema test (anti-inflammatory activity)
Type: in vivo, Sprague-Dawley rats
Details: Rattus norvegicus, po, 3 h, rat paw edema, 50 mg/kg, reading 3 hours after carrageenan; [(Control−Test)/Control]×100%; read-out: % Protection P
Procedure: Sprague-Dawley rats, male and female, 150-250 g will be used in an edema test. Rats will be deprived of food but not water for 18 hours prior to the experiment. The test compounds will be administered with a blunt-tipped needle orally, 50 mg/kg, as a suspension in 0.1% sodium CMC (carboxymethylcellulose) vehicle. Alternatively, the test compounds will be injected intravenously, subcutaneously, or intraperitoneally. One hour later, 0.1 ml of a 1% carrageenan solution in saline will be injected in the sub-plantar region of the right hind paw of each rat. […] The reading will be repeated 3 hours later. The displacement readings give a measure of carageenan-induced edema. Any reduction in carageenan-induced edema with a test compound, as compared to saline control, is a measure of the anti-inflammatory activity of the test compound. The percentage protection at 50-mg/kg doses was calculated according to the following formula: % Protection=[(Control−Test)/Control]×100%.
Following treatment, the media from the VSMC and HUVEC incubations were removed, and the amount of lactate dehydrogenase (LDH) released into the medium was determined with a commercial kit and expressed as a % increase over vehicle-treated cells. HPT toxicity was determined by the ethidium homodimer (EthHD) uptake assay. […] The lead compounds were also tested in two pairs of cell lines from the skin or prostate, one tumorigenic and one non-tumorigenic, to test for differing toxicity or heightened sensitivity in the tumorigenic lines. The cells were treated for 48 h with vehicle (0.1% DMSO) or 10 μM of each drug candidate, and the viability of the cells was determined by the MTT assay, expressed as a % decrease in viability compared to vehicle-treated cells. The in vivo inflammation model measured the % inhibition of rat paw edema induced by carageenan injection.

First: CSc1ccc(-c2cc(-c3nc4ccccc4c(=O)n3-c3cccc(C)c3)sc2N2CCOCC2)cc1 [Example 288, 2-[4-(4-Methylsulfanyl-phenyl)-5-morpholin-4-yl-thiophen-2-yl]-3-m-tolyl-3H-quinazolin-4-one]
Second: Cc1ccc(-n2c(-c3cc(-c4ccc(Cl)cc4)c(N4CCOCC4)s3)nc3ccccc3c2=O)cc1 [Example 291, 2-[4-(4-Chlorophenyl)-5-morpholin-4-yl-thiophen-2-yl]-3-p-tolyl-3H-quinazolin-4-one]
The inhibition in vivo at 50 mg/kg of the first is lower: 31% for the first, 53% for the second.

First: Cc1ccc(-n2c(-c3cc(-c4ccccc4)c(N4CCOCC4)s3)nc3ccccc3c2=O)cc1 [Example 290, 2-(5-Morpholin-4-yl-4-phenyl-thiophene-2-yl)-3-p-tolyl-3H-quinazolin-4-one]
Second: Cc1ccc(-n2c(-c3cc(-c4ccc(S(C)(=O)=O)cc4)c(N4CCOCC4)s3)nc3ccccc3c2=O)cc1 [Example 292, 2-[4-(4-Methanesulfonyl-phenyl)-5-morpholin-4-yl-thiophen-2-yl]-3-p-tolyl-3H-quinazolin-4-one]
The inhibition in vivo at 50 mg/kg of the first is higher: 48% for the first, 31% for the second.

Compared with `COc1ccccc1-n1c(-c2cc(-c3ccccc3)c(N3CCOCC3)s2)nc2ccccc2c1=O` [Example 294, 3-(2-Methoxy-phenyl)-2-(5-morpholin-4-yl-4-phenyl-thiophen-2-yl)-3H-quinazolin-4-one], `O=c1c2ccccc2nc(-c2cc(-c3ccccc3)c(N3CCOCC3)s2)n1-c1ccccc1Cl` [Example 304, 3-(2-Chlorophenyl)-2-(5-morpholin-4-yl-4-phenyl-thiophen-2-yl)-3H-quinazolin-4-one] is higher in inhibition in vivo at 50 mg/kg: 34% for the first, 37% for the second.

First: O=c1c2ccccc2nc(-c2cc(-c3ccc(Cl)cc3)c(N3CCOCC3)s2)n1-c1ccccc1Cl [Example 305, 2-[4-(4-Chlorophenyl)-5-morpholin-4-yl-thiophene-2-yl]-3-(2-chlorophenyl)-3H-quinazolin-4-one]
Second: CS(=O)(=O)c1ccc(-c2cc(-c3nc4ccccc4c(=O)n3-c3ccccc3Cl)sc2N2CCOCC2)cc1 [Example 307, 2-[4-(4-Methanesulphonyl-phenyl)-5-morpholin-4-yl-thiophen-2-yl]-3-(2-chloro-phenyl)-3H-quinazolin-4-one]
The inhibition in vivo at 50 mg/kg of the first is higher: 40% for the first, 31% for the second.

First: CN1CCN(c2sc(-c3nc4ccccc4c(=O)n3-c3ccc(Cl)cc3)cc2-c2ccc(S(C)(=O)=O)cc2)CC1 [Example 318, 3-(4-Chlorophenyl)-2-[4-(4-methanesulfonyl-phenyl)-5-(4-methyl-piperazine-1-yl)-thiophen-2-yl]-3H-quinazolin-4-one]
Second: CS(=O)(=O)c1ccc(C(=O)c2sc(Nc3ccc(Cl)cc3)nc2N)cc1 [Example 336, [4-Amino-2-(4-chloro-phenylamino)-thiazol-5-yl]-(4-methanesulfonyl-phenyl)-methanone]
The inhibition in vivo at 50 mg/kg of the first is lower: 21% for the first, 28.3% for the second.

Compared with `Nc1nc(Nc2ccccc2)sc1C(=O)c1ccc(Cl)cc1` [Example 323, (4-Amino-2-phenylamino-thiazol-5-yl)-(4-chloro-phenyl)-methanone], `CS(=O)(=O)c1ccc(C(=O)c2sc(Nc3ccccc3)nc2N)cc1` [Example 325, (4-Amino-2-phenylamino-thiazol-5-yl)-(4-methanesulfonyl-phenyl)-methanone] is lower in inhibition in vivo at 50 mg/kg: 43% for the first, 12% for the second.

Going from `Nc1nc(Nc2ccccc2)sc1C(=O)c1ccc(Cl)cc1Cl` [Example 324, (4-Amino-2-phenylamino-thiazol-5-yl)-(2,4-dichloro-phenyl)-methanone] to `Nc1nc(Nc2ccc(Cl)cc2)sc1C(=O)c1ccc(Cl)cc1Cl` [Example 335, [4-Amino-2-(4-chloro-phenylamino)-thiazol-5-yl]-(2,4-dichloro-phenyl)-methanone], the inhibition in vivo at 50 mg/kg falls from 55% to 30.3%.

First: CC(=O)Nc1ccc(C(=O)c2sc(Nc3ccccc3)nc2N)cc1 [Example 326, N-[4-(4-Amino-2-phenylamino-thiazole-5-carbonyl)-phenyl]-acetamide]
Second: COc1ccc(Nc2nc(N)c(C(=O)c3ccc(NC(C)=O)cc3)s2)cc1 [Example 348, (N-{4-[4-Amino-2-(4-methoxy-phenylamino)-thiazole-5-carbonyl]-phenyl}-acetamide)]
The inhibition in vivo at 50 mg/kg of the first is higher: 34% for the first, 28.3% for the second.

Going from `Nc1nc(Nc2ccccc2)sc1C(=O)c1cccnc1` [Example 327, (4-Amino-2-phenylamino-thiazol-5-yl)-pyridin-3-yl-methanone] to `Nc1nc(Nc2ccccc2)sc1C(=O)c1ccncc1` [Example 328, (4-Amino-2-phenylamino-thiazol-5-yl)-pyridin-4-yl-methanone], the inhibition in vivo at 50 mg/kg rises from 32% to 76%.

Compared with `Nc1nc(Nc2ccccc2)sc1C(=O)c1ccccn1` [Example 329, (4-Amino-2-phenylamino-thiazol-5-yl)-pyridin-2-yl-methanone], `Nc1nc(Nc2ccc(Cl)cc2)sc1C(=O)c1ccncc1` [Example 339, [4-Amino-2-(4-chloro-phenylamino)-thiazol-5-yl]-pyridin-4-yl-methanone] is lower in inhibition in vivo at 50 mg/kg: 54% for the first, 12% for the second.

Going from `COc1c(C)cnc(-c2sc(Nc3ccccc3)nc2N)c1C` [Example 330, 5-(4-Methoxy-3,5-dimethyl-pyridin-2-yl)-N2-phenyl-thiazole-2,4-diamine] to `COc1ccc(Nc2nc(N)c(-c3ncc(C)c(OC)c3C)s2)cc1` [Example 352, (5-(4-Methoxy-3,5-dimethyl-pyridin-2-yl)-N2-(4-methoxy-phenyl)-thiazole-2,4-diamine)], the inhibition in vivo at 50 mg/kg falls from 24% to 23%.

Compared with `Cc1c(OCC(F)(F)F)ccnc1-c1sc(Nc2ccc(Cl)cc2)nc1N` [Example 342, (N2-(4-Chloro-phenyl)-5-[3-Methyl-4-(2,2,2-trifluoro-ethoxy)-pyridin-2-yl]-thiazole-2,4-diamine)], `COc1ccc(Nc2nc(N)c(C(=O)c3ccc(Cl)cc3)s2)cc1` [Example 345, ([4-Amino-2-(4-methoxy-phenylamino)-thiazol-5-yl]-(4-chloro-phenyl)-methanone)] is lower in inhibition in vivo at 50 mg/kg: 76% for the first, 34.6% for the second.

First: COc1ccc(Nc2nc(N)c(C(=O)c3ccc(OC)cc3)s2)cc1 [Example 343, ([4-Amino-2-(4-methoxy-phenylamino)-thiazol-5-yl]-(4-methoxy-phenyl)-methanone)]
Second: COc1ccc(Nc2nc(N)c(C(=O)c3ccc(S(C)(=O)=O)cc3)s2)cc1 [Example 347, ([4-Amino-2-(4-methoxy-phenylamino)-thiazol-5-yl]-(4-methanesulfonyl-phenyl)-methanone)]
The inhibition in vivo at 50 mg/kg of the first is higher: 54% for the first, 30.3% for the second.

`COc1ccc(Nc2nc(N)c(C(=O)c3ccncc3)s2)cc1` [Example 350, ([4-Amino-2-(4-methoxy-phenylamino)-thiazol-5-yl]-pyridin-4-yl-methanone)] gave an inhibition in vivo at 50 mg/kg of 25.8%.

Same assay, conditions: rat paw edema, 50 mg/kg, reading 3 hours after carrageenan; [(Control−Test)/Control]×100%

Compared with `Cc1ccc(C(=O)c2sc(Nc3ccccc3)nc2N)cc1` [Example 322, 4-Amino-(2-phenylamino-thiazol-5-yl)-p-tolyl-methanone], `COc1c(C)cnc(-c2sc(Nc3ccc(Cl)cc3)nc2N)c1C` [Example 341] is higher in “% Protection P” value: 23.98% for the first, 32% for the second.

Same assay, conditions: rat paw edema, 50 mg/kg, reading 3 hours after carrageenan; [(Control−Test)/Control]×100%; 50 mg/kg

`COc1ccc(C(=O)c2sc(Nc3ccccc3)nc2N)cc1` [Example 321, 4-Amino-(2-phenylamino-thiazol-5-yl)-(4-methoxy-phenyl)-methanone] was tested, and the “% Protection P” value was 12.25%.
